Reference: PubChem BioAssay (NCI)
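Briefly, cells in 96-well plates were exposed to five compound concentrations for 48 h, and endpoints were estimated by linear interpolation. Definition used: TGI = concentration required for complete inhibition of growth.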

How the values were obtained:
Assay in all cases: NCI tumour cell line growth inhibition, 48 h
[1] = system: UACC-62 melanoma
[2] = system: PC-3 prostate
[3] = system: DU-145 prostate
[4] = system: MALME-3M melanoma
[5] = system: OVCAR-4 ovarian
[6] = system: MOLT-4 leukemia
[7] = system: A498 renal
[8] = system: SF-295 CNS
[9] = system: NCI-H522 lung
[10] = system: COLO 205 colon
[11] = system: SR leukemia
[12] = system: RXF 393 renal
[13] = system: KM12 colon
[14] = system: MCF7 breast
[15] = system: HCT-15 colon
[16] = system: OVCAR-5 ovarian
[17] = system: NCI-H23 lung
[18] = system: HL-60(TB) leukemia
[19] = system: SF-268 CNS
[20] = system: K-562 leukemia
[21] = system: OVCAR-8 ovarian
[22] = system: SK-MEL-2 melanoma
[23] = system: NCI/ADR-RES ovarian
[24] = system: MDA-N
[25] = system: SN12C renal
[26] = system: UO-31 renal
[27] = system: SW-620 colon
[28] = system: U251 CNS
[29] = system: SK-OV-3 ovarian
[30] = system: CAKI-1 renal
[31] = system: SNB-75 CNS
[32] = system: OVCAR-3 ovarian
[33] = system: T-47D breast
[34] = system: MDA-MB-231 breast
[35] = system: HT29 colon
[36] = system: HCT-116 colon
[37] = system: HOP-62 NSCLC
[38] = system: SK-MEL-28 melanoma
[39] = system: A549 NSCLC
[40] = system: EKVX NSCLC
[41] = system: SK-MEL-5 melanoma
[42] = system: UACC-257 melanoma
[43] = system: HCC-2998 colon
[44] = system: SF-539 CNS
[45] = system: HOP-92 NSCLC
[46] = system: CCRF-CEM leukemia
[47] = system: HS 578T breast
[48] = system: MDA-MB-435
[49] = system: 786-0 renal
[50] = system: BT-549 breast
[51] = system: LOX IMVI melanoma
[52] = system: ACHN renal
[53] = system: IGROV1 ovarian
[54] = system: M14 melanoma
[55] = system: TK-10 renal
[56] = system: NCI-H460 lung

Compound: Cc1ccc(S(=O)(=O)n2cc(C#N)c(C#N)c2)cc1
- TGI [1]: 33.7 µM
- TGI [2]: 85 µM
- TGI [3]: > 100 µM
- TGI [4]: 33.9 µM
- TGI [5]: > 100 µM
- TGI [6]: > 100 µM
- TGI [7]: 71.9 µM
- TGI [8]: 61.6 µM
- TGI [9]: 40 µM
- TGI [10]: 68.2 µM
- TGI [11]: 71 µM
- TGI [12]: 94.3 µM
- TGI [13]: > 100 µM
- TGI [14]: 48.2 µM
- TGI [15]: 59 µM
- TGI [16]: 81.2 µM
- TGI [17]: 91.3 µM
- TGI [18]: 71.6 µM
- TGI [19]: 69.2 µM
- TGI [20]: > 100 µM
- TGI [21]: > 100 µM
- TGI [22]: 52 µM
- TGI [23]: > 100 µM
- TGI [24]: 70.7 µM
- TGI [25]: 69.1 µM
- TGI [26]: 72.2 µM
- TGI [27]: 80 µM
- TGI [28]: > 100 µM
- TGI [29]: 91.9 µM
- TGI [30]: 59.1 µM
- TGI [31]: > 100 µM
- TGI [32]: 46.2 µM
- TGI [33]: 72.4 µM
- TGI [34]: > 100 µM
- TGI [35]: 65.9 µM
- TGI [36]: > 100 µM
- TGI [37]: 68.8 µM
- TGI [38]: 30.8 µM
- TGI [39]: 78.9 µM
- TGI [40]: > 100 µM
- TGI [41]: 42 µM
- TGI [42]: > 100 µM
- TGI [43]: 48.2 µM
- TGI [44]: 39.9 µM
- TGI [45]: 88 µM
- TGI [46]: 92.1 µM
- TGI [47]: 61.4 µM
- TGI [48]: 45.6 µM
- TGI [49]: > 100 µM
- TGI [50]: 45.2 µM
- TGI [51]: 52.1 µM
- TGI [52]: 40.7 µM
- TGI [53]: > 100 µM
- TGI [54]: 47.7 µM
- TGI [55]: > 100 µM
- TGI [56]: > 100 µM
